Patent US12077503B2, “Substituted cyclic amides and their use as herbicides” (FMC CORPORATION, priority 2015, dated 2024)

Tests used:
Format in all cases: in vivo
[1] = test system: Kochia (Kochia scoparia); experiment: Test A preemergence; conditions: for Plant response rating, Kochia: 125 g ai/ha
Outline: (§1)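 Visual injury, scored on a 0–100 scale relative to untreated controls, was recorded about 10 d after application. Treatments were a preemergence soil spray over planted seeds or a postemergence spray on plants at the one- to two-leaf stage, 2 to 10 cm tall, all in loam soil–sand blend in the greenhouse.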

[2] = test system: ragweed (common ragweed, Ambrosia elatior); experiment: Test A preemergence; conditions: for Plant response rating, Ragweed: 125 g ai/ha
Outline: as §1

[3] = test system: ryegrass, Italian (Italian ryegrass, Lolium multiflorum); experiment: Test A preemergence; conditions: for Plant response rating, Ryegrass, Italian: 125 g ai/ha
Outline: as §1

[4] = test system: pigweed (Amaranthus retroflexus); experiment: Test A preemergence; conditions: for Plant response rating, Pigweed: 125 g ai/ha
[5] = test system: barnyardgrass (Echinochloa crus-galli); experiment: Test A preemergence; conditions: for Plant response rating, Barnyardgrass: 125 g ai/ha
Outline: as §1

[6] = test system: giant foxtail (Setaria faberii); experiment: Test A preemergence; conditions: for Plant response rating, Foxtail, Giant: 125 g ai/ha
Outline: as §1

[7] = test system: ducksalad (Heteranthera limosa); experiment: Test B flooded paddy test; conditions: Flood, 250 g ai/ha; 0 to 100 scale where 0 is no effect and 100 is complete control; 13 to 15 d
Outline: (§2)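 Percent control, visually estimated after 13–15 d in the greenhouse on a 0–100 basis, compares treated pots with untreated ones; compound was put into paddy water 3 cm above the soil when plants had two leaves.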

[8] = test system: rice (Oryra sativa); experiment: Test B flooded paddy test; conditions: Flood, 250 g ai/ha; 0 to 100 scale where 0 is no effect and 100 is complete control; 13 to 15 d
Outline: as §2

[9] = test system: barnyardgrass (Echinochloa crus-galli); experiment: Test B flooded paddy test; conditions: Flood, 250 g ai/ha; 0 to 100 scale where 0 is no effect and 100 is complete control; 13 to 15 d
Outline: as §2

[10] = test system: sedge, umbrella (small-flower umbrella sedge, Cyperus difformis); experiment: Test B flooded paddy test; conditions: Flood, 250 g ai/ha; 0 to 100 scale where 0 is no effect and 100 is complete control; 13 to 15 d
Outline: as §2

[11] = test system: Kochia (Kochia scoparia); experiment: Test A postemergence
Outline: as §1

[12] = test system: ragweed (common ragweed, Ambrosia elatior); experiment: Test A postemergence
Outline: as §1

[13] = test system: blackgrass (Alopecurus myosuroides); experiment: Test A postemergence
Outline: as §1

[14] = test system: Galium (catchweed bedstraw, Galium aparine); experiment: Test A postemergence
Outline: as §1

[15] = test system: corn (Zea mays); experiment: Test A postemergence
Outline: as §1

[16] = test system: ryegrass, Italian (Italian ryegrass, Lolium multiflorum); experiment: Test A postemergence
Outline: as §1

[17] = test system: pigweed (Amaranthus retroflexus); experiment: Test A postemergence
Outline: as §1

[18] = test system: barnyardgrass (Echinochloa crus-galli); experiment: Test A postemergence
Outline: as §1

[19] = test system: giant foxtail (Setaria faberii); experiment: Test A postemergence
Outline: as §1

[20] = test system: wheat (Triticum aestivum); experiment: Test A postemergence
Outline: as §1

[21] = Preemergence, visual injury after approximately 10 d, 0 to 100 scale where 0 is no effect and 100 is complete control
[22] = Preemergence, 500 g ai/ha, visual injury approx. 10 d
[23] = 125 g ai/ha, postemergence, visual injury rating on 0 to 100 scale (0 no effect, 100 complete control), approx. 10 d
[24] = Postemergence, 500 g ai/ha, 0 to 100 scale where 0 is no effect and 100 is complete control
[25] = preemergence, 0 to 100 scale (0 no effect, 100 complete control)
[26] = Preemergence, 500 g ai/ha, 0 is no effect, 100 is complete control
[27] = 500 g ai/ha, postemergence, 0 to 100 scale, 0 no effect, 100 complete control
[28] = Postemergence, 125 g ai/ha, visual injury, 0 to 100 scale (0 no effect, 100 complete control), approx. 10 d

SMILES: O=C1NCC(c2c(F)cccc2F)C1C(=O)Nc1ccc(F)cc1F (racemic) [Compound 517]
- Plant response rating, Kochia [1, 21]: 0
- Kochia plant response rating (0 to 100 scale, 0 is no effect, 100 is complete control) [1, 22]: 0
- Plant response rating, Ragweed [2, 21]: 0
- Ragweed plant response rating (0 to 100 scale, 0 is no effect, 100 is complete control) [2, 22]: 0
- Plant response rating, Ryegrass, Italian [3, 21]: 0
- Ryegrass, Italian plant response rating (0 to 100 scale, 0 is no effect, 100 is complete control) [3, 22]: 0
- Plant response rating, Pigweed [4, 21]: 0
- Pigweed plant response rating (0 to 100 scale, 0 is no effect, 100 is complete control) [4, 22]: 0
- Plant response rating, Barnyardgrass [5, 21]: 0
- Barnyardgrass plant response rating (0 to 100 scale, 0 is no effect, 100 is complete control) [5, 22]: 0
- Plant response rating, Foxtail, Giant [6, 21]: 0
- Foxtail, Giant plant response rating (0 to 100 scale, 0 is no effect, 100 is complete control) [6, 22]: 30
- Plant response rating, Ducksalad [7]: 0
- Plant response rating, Rice [8]: 0
- Plant response rating, Barnyardgrass [9]: 0
- Plant response rating, Sedge, Umbrella [10]: 0
- Kochia plant response rating [11, 23]: 0
- Plant response rating, Kochia [11, 24]: 0
- Ragweed plant response rating [12, 23]: 0
- Plant response rating, Ragweed [12, 24]: 0
- Blackgrass plant response rating [13, 23]: 0
- Plant response rating, Blackgrass [13, 24]: 0
- Galium plant response rating [14, 23]: 0
- Plant response rating, Galium [14, 24]: 0
- Corn plant response rating [15, 23]: 0
- Plant response rating, Corn [15, 24]: 0
- Ryegrass, Italian plant response rating [16, 23]: 0
- Plant response rating, Ryegrass, Italian [16, 24]: 0
- Pigweed plant response rating [17, 23]: 0
- Plant response rating, Pigweed [17, 24]: 0
- Barnyardgrass plant response rating [18, 23]: 20
- Plant response rating, Barnyardgrass [18, 24]: 30
- Foxtail, Giant plant response rating [19, 23]: 0
- Plant response rating, Foxtail, Giant [19, 24]: 0
- Wheat plant response rating [20, 23]: 0
- Plant response rating, Wheat [20, 24]: 0

SMILES: O=C1NCC(c2cccc(F)c2)C1C(=O)Nc1ccccc1C(F)(F)F (racemic) [Compound 376]
- Plant response rating, Kochia [1, 25]: 0
- Kochia plant response rating (0 to 100 scale) [1, 26]: 0
- Plant response rating, Ragweed [2, 25]: 0
- Ragweed plant response rating (0 to 100 scale) [2, 26]: 0
- Plant response rating, Ryegrass, Italian [3, 25]: 0
- Ryegrass, Italian plant response rating (0 to 100 scale) [3, 26]: 20
- Plant response rating, Pigweed [4, 25]: 0
- Pigweed plant response rating (0 to 100 scale) [4, 26]: 0
- Plant response rating, Barnyardgrass [5, 25]: 90
- Barnyardgrass plant response rating (0 to 100 scale) [5, 26]: 90
- Plant response rating, Foxtail, Giant [6, 25]: 90
- Foxtail, Giant plant response rating (0 to 100 scale) [6, 26]: 90
- Plant response rating, Ducksalad [7]: 100
- Plant response rating, Rice [8]: 0
- Plant response rating, Barnyardgrass [9]: 70
- Plant response rating, Sedge, Umbrella [10]: 0
- Plant response rating, Kochia [11, 27]: 20
- Plant response rating, Kochia [11, 28]: 0
- Plant response rating, Ragweed [12, 27]: 20
- Plant response rating, Ragweed [12, 28]: 0
- Plant response rating, Blackgrass [13, 27]: 40
- Plant response rating, Blackgrass [13, 28]: 0
- Plant response rating, Galium [14, 27]: 30
- Plant response rating, Galium [14, 28]: 30
- Plant response rating, Corn [15, 27]: 30
- Plant response rating, Corn [15, 28]: 0
- Plant response rating, Ryegrass, Italian [16, 27]: 20
- Plant response rating, Ryegrass, Italian [16, 28]: 0
- Plant response rating, Pigweed [17, 27]: 0
- Plant response rating, Pigweed [17, 28]: 0
- Plant response rating, Barnyardgrass [18, 27]: 90
- Plant response rating, Barnyardgrass [18, 28]: 90
- Plant response rating, Foxtail, Giant [19, 27]: 90
- Plant response rating, Foxtail, Giant [19, 28]: 90
- Plant response rating, Wheat [20, 27]: 0
- Plant response rating, Wheat [20, 28]: 0
